PubChem BioAssay AID1919017 (Molecular Pharmacology Branch, DTP, NCI, 2023)

Test system: SW1271 complex spheroids with HUVEC/MSC, growth, % test/control
Assay: Anticancer human tumor SW1271 cell line growth inhibition [AhR];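 further: spheroids exposed to agents for 7 days before readout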
Settings: for IC50: curve of first compound; for viability, T/C: stronger effect = lower value
Procedure, shortened: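 Complex tumor spheroids co-cultured with HUVEC and human MSC stroma; AhR antagonists tested in combination with standard-of-care and investigational agents. Top concentration at or near clinical Cmax (else 10 microM), half-log dilutions; growth expressed as percent test/control.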

[1] = second compound 0.1 µM, first compound 0.00316 µM
[2] = second compound 0.1 µM, first compound 0.01 µM
[3] = second compound 0.1 µM, first compound 0.0316 µM
[4] = second compound 0.1 µM, first compound 0.1 µM
[5] = second compound 0.316 µM, first compound 0.00316 µM
[6] = second compound 0.316 µM, first compound 0.01 µM
[7] = second compound 0.316 µM, first compound 0.0316 µM
[8] = second compound 0.316 µM, first compound 0.1 µM
[9] = second compound 1 µM, first compound 0.00316 µM
[10] = second compound 1 µM, first compound 0.01 µM
[11] = second compound 1 µM, first compound 0.0316 µM
[12] = second compound 1 µM, first compound 0.1 µM
[13] = second compound 3.16 µM, first compound 0.00316 µM
[14] = second compound 3.16 µM, first compound 0.01 µM
[15] = second compound 3.16 µM, first compound 0.0316 µM
[16] = second compound 3.16 µM, first compound 0.1 µM
[17] = second compound 10 µM, first compound 0.00316 µM
[18] = second compound 10 µM, first compound 0.01 µM
[19] = second compound 10 µM, first compound 0.0316 µM
[20] = second compound 10 µM, first compound 0.1 µM
[21] = second compound 0.1 µM, first compound 0.316 µM
[22] = second compound 0.1 µM, first compound 1 µM
[23] = second compound 0.1 µM, first compound 3.16 µM
[24] = second compound 0.1 µM, first compound 10 µM
[25] = second compound 0.316 µM, first compound 0.316 µM
[26] = second compound 0.316 µM, first compound 1 µM
[27] = second compound 0.316 µM, first compound 3.16 µM
[28] = second compound 0.316 µM, first compound 10 µM
[29] = second compound 1 µM, first compound 0.316 µM
[30] = second compound 1 µM, first compound 1 µM
[31] = second compound 1 µM, first compound 3.16 µM
[32] = second compound 1 µM, first compound 10 µM
[33] = second compound 3.16 µM, first compound 0.316 µM
[34] = second compound 3.16 µM, first compound 1 µM
[35] = second compound 3.16 µM, first compound 3.16 µM
[36] = second compound 3.16 µM, first compound 10 µM
[37] = second compound 10 µM, first compound 0.316 µM
[38] = second compound 10 µM, first compound 1 µM
[39] = second compound 10 µM, first compound 3.16 µM
[40] = second compound 10 µM, first compound 10 µM

SMILES	IC50 (second compound 0.1 µM) [µM]	IC50 (second compound 0.316 µM) [µM]	IC50 (second compound 1 µM) [µM]	IC50 (second compound 3.16 µM) [µM]	IC50 (second compound 10 µM) [µM]	viability, T/C [3] [%]	viability, T/C [4] [%]	viability, T/C [7] [%]	viability, T/C [8] [%]	viability, T/C [11] [%]	viability, T/C [12] [%]	viability, T/C [15] [%]	viability, T/C [16] [%]	viability, T/C [19] [%]	viability, T/C [20] [%]	viability, T/C [21] [%]	viability, T/C [22] [%]	viability, T/C [25] [%]	viability, T/C [26] [%]	viability, T/C [29] [%]	further results
CC[C@@]1(O)C(=O)OCc2c1cc1n(c2=O)Cc2cc3c(CN(C)C)c(O)ccc3nc2-1 + Cc1cncc(-c2nc(NCCc3c[nH]c4ccccc34)c3ncn(C(C)C)c3n2)c1	> 0.1	> 0.1	> 0.1	> 0.1	0.0119	105	91	102	67	77.4	80.2	96	78	45	37.1						viability, T/C (second compound 0.1 µM, first compound 0.000316 µM): 85.2%; viability, T/C (second compound 0.1 µM, first compound 0.001 µM): 99.7%; viability, T/C [1]: 124%; viability, T/C [2]: 84.9%; viability, T/C (second compound 0.316 µM, first compound 0.000316 µM): 93.5%; viability, T/C (second compound 0.316 µM, first compound 0.001 µM): 114%; viability, T/C [5]: 108%; viability, T/C [6]: 94.3%; viability, T/C (second compound 1 µM, first compound 0.000316 µM): 100%; viability, T/C (second compound 1 µM, first compound 0.001 µM): 118%; viability, T/C [9]: 108%; viability, T/C [10]: 88.9%; viability, T/C (second compound 3.16 µM, first compound 0.000316 µM): 95.2%; viability, T/C (second compound 3.16 µM, first compound 0.001 µM): 109%; viability, T/C [13]: 106%; viability, T/C [14]: 86.5%; viability, T/C (second compound 10 µM, first compound 0.000316 µM): 66.1%; viability, T/C (second compound 10 µM, first compound 0.001 µM): 62.2%; viability, T/C [17]: 52%; viability, T/C [18]: 54.5%
COc1cc(C2c3cc4c(cc3C(OC3OC5COC(C)OC5C(O)C3O)C3COC(=O)C23)OCO4)cc(OC)c1O (stereo not given) + Cc1cncc(-c2nc(NCCc3c[nH]c4ccccc34)c3ncn(C(C)C)c3n2)c1	> 10	> 10	> 10	> 10	< 0.0316	81.6	88.5	86.1	86.3	96.2	80.1	89.8	99.2	41.5	39.6	68.1	60.7	67.4	53.8	79.2	viability, T/C [23]: 63.6%; viability, T/C [24]: 65.3%; viability, T/C [27]: 66.1%; viability, T/C [28]: 53.4%; viability, T/C [30]: 80.9%; viability, T/C [31]: 55.9%; viability, T/C [32]: 72%; viability, T/C [33]: 112%; viability, T/C [34]: 76.2%; viability, T/C [35]: 72.4%; viability, T/C [36]: 70.6%; viability, T/C [37]: 41%; viability, T/C [38]: 35.4%; viability, T/C [39]: 32.6%; viability, T/C [40]: 29.1%
COc1cccc2c1C(=O)c1c(O)c3c(c(O)c1C2=O)CC(O)(C(=O)CO)CC3OC1CC(N)C(O)C(C)O1 (stereo not given) + Cc1cncc(-c2nc(NCCc3c[nH]c4ccccc34)c3ncn(C(C)C)c3n2)c1	0.332	0.28	0.38	0.258	< 0.0316	74	79.5	81.5	72.4	89.5	89	95	77.8	48	38.4	51.9	6.7	47.1	2.96	58.8	viability, T/C [23]: 3.78%; viability, T/C [24]: 5.75%; viability, T/C [27]: 3.17%; viability, T/C [28]: 6.88%; viability, T/C [30]: 1.94%; viability, T/C [31]: 4.32%; viability, T/C [32]: 4.87%; viability, T/C [33]: 46.4%; viability, T/C [34]: 1.86%; viability, T/C [35]: 5.28%; viability, T/C [36]: 7.13%; viability, T/C [37]: 24.3%; viability, T/C [38]: 3.36%; viability, T/C [39]: 9.24%; viability, T/C [40]: 7.74%
Nc1ncn(C2CC(O)C(CO)O2)c(=O)n1 (stereo not given) + Cc1cncc(-c2nc(NCCc3c[nH]c4ccccc34)c3ncn(C(C)C)c3n2)c1	> 1	> 1	> 1	> 1	0.307	104	87	111	83.4	107	77.3	87.9	104	51	53	83.1	83.8	76.3	95.1	111	viability, T/C [1]: 107%; viability, T/C [2]: 123%; viability, T/C [5]: 105%; viability, T/C [6]: 92.6%; viability, T/C [9]: 88.1%; viability, T/C [10]: 90.5%; viability, T/C [30]: 84%; viability, T/C [13]: 97.4%; viability, T/C [14]: 103%; viability, T/C [33]: 90%; viability, T/C [34]: 110%; viability, T/C [17]: 52.4%; viability, T/C [18]: 54.8%; viability, T/C [37]: 48.9%; viability, T/C [38]: 47.5%
